Here are results for 13 compounds from PubChem BioAssay (NCI).

Assay in all cases: NCI-60 cell line screen, 48 h
In test [1] the test system is SF-295 CNS.
Test [2] deals with MOLT-4 leukemia.
Test [3] deals with SR leukemia.
Test [4] has as its system HT29 colon.
The test system of test [5] is SK-MEL-2 melanoma.
For test [6], the system named is SF-539 CNS.
Test [7] relates to K-562 leukemia.
For test [8], the system named is EKVX NSCLC.
Test [9] concerns HCT-15 colon.
The test system of test [10] is RPMI-8226 leukemia.

Where “and” joins values, the source holds several entries; their conditions need not be identical. Equal values may be shown once.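 In this assay, cells in 96-well plates receive the compound at five concentrations for 48 hours. Endpoints are linearly interpolated between the surrounding concentrations. At the GI50, growth is halved. TGI is the concentration that stops growth completely.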

`C/C(=N\NC(=O)c1cccnc1)c1cccc(/C(C)=N/NC(=O)c2cccnc2)n1`: the TGI in test [1] was 20.5 µM; in test [2], 12 µM; in [3], above 100 µM; in test [4] it was above 100 µM; in test [5] it was 7.02 µM; in test [6] it was 13.6 µM. The TGI in test [7], in test [8] and in test [9] was above 100 µM in each case. The GI50 in test [2] is 2.45 µM; in test [3] it was 4.56 µM; in test [4], 2.63 µM; in [5], 2.33 µM; in [7] it was 3.04 µM.

Regarding `CC(=O)OC1CC(O)CC2=CCC3C4CCC(C(C)(O)C(O)CC5COC(=O)C5C)C4(C)CCC3C21C` (configuration not stated), the TGI in test [1], in test [2], in [3], in test [4], in test [10] and in test [5] was above 25 µM throughout. Besides, the TGI in test [6], in [7], in test [8] and in [9] was above 25 µM each time.

Turning to `O=C1c2cc3c(cc2-c2c1c1ccc(Cl)cc1c(=O)n2C[C@H](O)[C@@H](O)[C@H](O)CO)OCO3`, the GI50 in test [2] was below 0.01 µM; in test [4], 0.0498 µM; in test [10] it was 0.24 µM; in [5], 0.194 µM; in [6] it was 0.016 µM; in test [7], 0.0342 µM. Further, the GI50 in test [8] was 0.202 µM; in test [9], 0.143 µM. Besides, the TGI is 12.5 µM in test [2]; 0.283 µM in test [4]; 0.989 µM in test [10]; 0.432 µM in test [5]; 0.0602 µM in [6]; above 100 µM in test [7]. In addition, the TGI is 11.2 µM in test [8] and 1.66 µM in [9].

As for `CC1(C)CCC2(C(=O)OC3OC(CO)C(O)C(O)C3O)CCC3(C)C(=CCC4C5(C)CCC(OC6OC(CO)C(O)C(O)C6O)C(C)(C)C5CCC43C)C2C1` (configuration not stated), the TGI in test [1] is above 25 µM; in test [2] it was 13.7 µM; in test [3] it was 10.7 µM; in test [4] it was above 25 µM; in test [10] it was 10.7 µM; in test [5], 14.8 µM. Also, the TGI is 12.8 µM in test [6], above 25 µM in test [7], above 25 µM in test [8] and above 25 µM in test [9].

With `O=[N+]([O-])c1ccc2c(c1)c(N=NC(=S)NC1CCCCC1)c(O)n2CN1CCOCC1`, the TGI in test [1] is 16.6 µM; in test [2], above 100 µM; in test [3], 21.5 µM; in test [4] it was 17.9 µM; in test [10] it was 52.6 µM; in test [5] it was 25.9 µM. Also, the TGI in test [6] is 25.4 µM; in test [7], above 100 µM; in test [8], 14.1 µM; in test [9], 15.6 µM.

Regarding `O=S1(=O)OC(c2ccc(O)cc2)(c2ccc(O)cc2)c2ccccc21`, the TGI in test [1], in [2], in test [4], in [10], in test [5] and in test [6] was above 100 µM each time. For the same compound, the TGI in [7], in test [8] and in test [9] was above 100 µM each time.

Regarding `Clc1ccc(Nc2nc(Cl)c3[nH]cnc3n2)cc1Cl`, the TGI in test [1] worked out at 79.7 µM; in test [2], 61.3 µM; in test [3], 55.7 µM; in test [4], 43.9 µM; in test [10], 83 µM; in test [5], 59.5 µM. Further, the TGI in test [7] is above 100 µM; in [8], 49.1 µM; in test [9], 87.5 µM.

As to `O=[n+]1c2c(n([O-])c3ccccc31)-c1cccc3cccc-2c13`, the TGI in [1], in [2], in test [3], in test [4], in test [7] and in test [9] was above 100 µM throughout.

For the compound `CCOC(=O)/C(=C\NCC(OCC)OCC)c1nc2ccccc2[nH]1`, the TGI in test [1] was above 100 µM; in [2] it was 41.3 µM; in test [3] it was 58.5 µM; in test [4] it was 71.1 µM; in test [10], 39.5 µM; in test [5], 44.7 µM. In addition, the TGI was above 100 µM in test [6], 81 µM in test [7], 95 µM in test [8] and 51.8 µM in [9].

In the case of `CCOC(=O)C1CCn2c(nc3c2c(=O)n(C)c(=O)n3C)S1` (configuration not stated), the TGI in test [1], in test [2], in test [3], in [4], in test [10] and in test [5] was above 100 µM each time. Besides, the TGI in test [6], in [7], in test [8] and in test [9] was above 100 µM each time.

For `N[C@H]1CCN(c2c(F)cc3c(=O)c(C(=O)O)cn4c3c2Oc2cc3c(ccc5ccccc53)cc2-4)C1`, the TGI in test [1] was above 100 µM; in [2], above 100 µM; in [3] it was above 100 µM; in test [4], 7.34 µM; in test [10] it was 4 µM; in test [5] it was 43.5 µM. Moreover, the TGI in test [6] is 10.6 µM; in [7], above 100 µM; in test [8] it was 7.21 µM; in test [9] it was above 100 µM.

Regarding `CC[C@@]1(O)C(=O)OCc2c1cc1n(c2=O)Cc2c-1nc1ccc(O)cc1c2CC[Si](C)(C)C`, the TGI in test [1] was 0.0296 µM; in test [2], 0.00221 µM; in test [3], below 0.001 µM; in [10], 0.348 µM; in test [5] it was 0.576 µM and 1.17 µM; in [9], 95 µM. In addition, the GI50 in test [5] is 0.0742 µM; in test [8], 0.0181 µM.

`COc1c2c(cc3c1C(O)N1CC[C@]34[C@H]3O[C@H]3[C@H](OC)C[C@@H]14)OCO2` (some centres not stated): the TGI in test [1] was 71.7 µM; in test [2], above 100 µM; in [3], 88.6 µM; in test [4], above 100 µM; in [10], above 100 µM; in [5] it was 83.8 µM. Moreover, the TGI in [6], in test [7], in test [8] and in [9] was above 100 µM throughout.
